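Results reflect a 48-hour exposure of cells in 96-well plates to compound at five concentrations. GI50: concentration for 50% inhibition of growth.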 Activity calls are given as the source filed them. Cut-off read from the data, not from the text of the source: active = GI50 up to about 1.1 µM and inactive = higher.
How the values were obtained:
Assay in all cases: NCI-60 cell line screen, 48 h
NCI-H522 = tested on: NCI-H522
NCI-H226 = tested on: NCI-H226
ACHN = tested on: ACHN
SK-OV-3 = tested on: SK-OV-3
HT-29 = tested on: HT-29
OVCAR-3 = tested on: OVCAR-3
KM12 = tested on: KM12
786-0 = tested on: 786-0
MDA-N = tested on: MDA-N
U-251 = tested on: U-251
UO-31 = tested on: UO-31
SK-MEL-28 = tested on: SK-MEL-28
MDA-MB-231 = tested on: MDA-MB-231
Hs-578T = tested on: Hs-578T
EKVX = tested on: EKVX
RPMI-8226 = tested on: RPMI-8226
M14 = tested on: M14
DU-145 = tested on: DU-145
OVCAR-4 = tested on: OVCAR-4
LOX IMVI = tested on: LOX IMVI

Measured: GI50

Clc1nc2n(c1/C=C/c1cccs1)CCS2
inactive: NCI-H522 35.1 µM | NCI-H226 31.6 µM | ACHN 37.5 µM | SK-OV-3 30.7 µM | HT-29 24.3 µM | OVCAR-3 23.5 µM | KM12 37.7 µM | 786-0 20 µM | MDA-N 36.5 µM | U-251 28.1 µM | UO-31 31 µM | SK-MEL-28 34.8 µM | MDA-MB-231 6.41 µM | Hs-578T 30.1 µM | EKVX 5.43 µM | RPMI-8226 15.7 µM | M14 38.7 µM | DU-145 28.6 µM | OVCAR-4 64 µM

O=C1NC2=NN=C(c3ccc(Br)cc3)CN2NC12c1ccccc1-c1ccccc12
inactive: NCI-H522 > 100 µM | NCI-H226 > 100 µM | ACHN > 100 µM | SK-OV-3 > 100 µM | HT-29 > 100 µM | OVCAR-3 > 100 µM | 786-0 > 100 µM | MDA-N > 100 µM | U-251 > 100 µM | UO-31 > 100 µM | SK-MEL-28 > 100 µM | MDA-MB-231 > 100 µM | Hs-578T 37 µM | EKVX > 100 µM | LOX IMVI > 100 µM | M14 > 100 µM | DU-145 > 100 µM | OVCAR-4 > 100 µM

Clc1nc(NC23CC4CC(CC(C4)C2)C3)nc(NC23CC4CC(CC(C4)C2)C3)n1
inactive: NCI-H226 97.9 µM | ACHN > 34.8 µM | SK-OV-3 > 76.6 µM | HT-29 66.1 µM | OVCAR-3 50.8 µM | KM12 41.2 µM | 786-0 52.5 µM | MDA-N 46.8 µM | U-251 26.7 µM | UO-31 23.4 µM | SK-MEL-28 > 100 µM | MDA-MB-231 > 34.3 µM | Hs-578T 25 µM | EKVX > 89.9 µM | LOX IMVI > 100 µM | RPMI-8226 19.1 µM | M14 73.1 µM | DU-145 56.6 µM | OVCAR-4 83 µM

C1=C(c2ccccc2)SC=C(c2ccccc2)S1
inactive: NCI-H226 29 µM | ACHN 60.5 µM | SK-OV-3 27.5 µM | HT-29 24.9 µM | OVCAR-3 33.7 µM | KM12 16.9 µM | 786-0 > 100 µM | MDA-N 6.17 µM | U-251 38.4 µM | UO-31 60.5 µM | SK-MEL-28 49 µM | MDA-MB-231 32.2 µM | Hs-578T 44 µM | EKVX 24.1 µM | LOX IMVI 36.9 µM | RPMI-8226 33.3 µM | M14 39.8 µM | DU-145 > 100 µM | OVCAR-4 32.4 µM

COc1cc(=O)n2c3ccccc3n(C)c2c1C#N
inactive: NCI-H522 > 100 µM | NCI-H226 > 100 µM | ACHN 76.9 µM | SK-OV-3 > 100 µM | HT-29 74.3 µM | OVCAR-3 > 100 µM | KM12 > 100 µM | 786-0 > 100 µM | MDA-N > 100 µM | U-251 > 100 µM | UO-31 > 100 µM | MDA-MB-231 > 100 µM | Hs-578T > 100 µM | EKVX > 100 µM | RPMI-8226 > 100 µM | M14 > 100 µM | DU-145 > 100 µM | OVCAR-4 > 100 µM

COc1ccc(/C=C2\N=C(c3ccccc3)N(C3Nc4cc5c(cc4S3)NC(N3C(=O)/C(=C/c4ccc(OC)cc4)N=C3c3ccccc3)S5)C2=O)cc1 (stereo not drawn)
inactive: NCI-H522 18.1 µM | NCI-H226 60.1 µM | ACHN 90.4 µM | HT-29 46.2 µM | OVCAR-3 43.6 µM | KM12 54.6 µM | 786-0 28.1 µM | MDA-N 37.9 µM | U-251 22.9 µM | UO-31 > 100 µM | SK-MEL-28 > 100 µM | MDA-MB-231 > 100 µM | Hs-578T 48.5 µM | EKVX 16.7 µM | LOX IMVI 37.3 µM | RPMI-8226 29.5 µM | M14 > 100 µM | DU-145 50.5 µM | OVCAR-4 38.3 µM

O=[N+]([O-])C(=C1NCCN1)/C(Cl)=C(/Cl)N1CCOCC1
inactive: NCI-H226 > 100 µM | ACHN > 100 µM | SK-OV-3 > 100 µM | HT-29 > 100 µM | OVCAR-3 > 100 µM | KM12 > 100 µM | 786-0 > 100 µM | MDA-N > 100 µM | U-251 > 100 µM | UO-31 > 100 µM | SK-MEL-28 > 100 µM | MDA-MB-231 > 100 µM | Hs-578T > 100 µM | EKVX > 100 µM | RPMI-8226 > 100 µM | M14 > 100 µM | DU-145 > 100 µM | OVCAR-4 > 100 µM

N#Cc1c(-c2nc3ccccc3s2)c(=O)oc2cc(O)ccc12
inactive: NCI-H522 13.2 µM | NCI-H226 41 µM | ACHN 25 µM | HT-29 13 µM | OVCAR-3 2.25 µM | KM12 22.3 µM | 786-0 26.4 µM | MDA-N 33.1 µM | U-251 18 µM | UO-31 22 µM | SK-MEL-28 41.1 µM | MDA-MB-231 22.9 µM | Hs-578T 20 µM | EKVX 39.6 µM | LOX IMVI 28.6 µM | RPMI-8226 13.1 µM | M14 35.2 µM | DU-145 22.6 µM | OVCAR-4 23.1 µM

Cc1cccc(C(C)O)n1 (stereo not drawn)
inactive: NCI-H522 > 100 µM | NCI-H226 > 100 µM | ACHN > 100 µM | SK-OV-3 > 100 µM | HT-29 > 100 µM | OVCAR-3 > 100 µM | KM12 > 100 µM | 786-0 > 100 µM | MDA-N > 100 µM | U-251 > 100 µM | UO-31 > 100 µM | SK-MEL-28 > 100 µM | MDA-MB-231 > 100 µM | Hs-578T > 100 µM | EKVX > 100 µM | M14 > 100 µM | DU-145 > 100 µM | OVCAR-4 > 100 µM

Cc1cc(S(=O)(=O)Nc2nc3ccccc3[nH]2)c(S)cc1Cl
inactive: NCI-H522 97.3 µM | ACHN 71.9 µM | SK-OV-3 > 100 µM | HT-29 > 100 µM | OVCAR-3 49.2 µM | KM12 37.5 µM | 786-0 46.5 µM | MDA-N > 100 µM | U-251 24.1 µM | UO-31 > 100 µM | SK-MEL-28 27.4 µM | MDA-MB-231 58.6 µM | Hs-578T 70 µM | EKVX 53.6 µM | LOX IMVI 19.3 µM | RPMI-8226 34.6 µM | M14 > 100 µM | DU-145 > 100 µM | OVCAR-4 61.4 µM

CCOC(=O)c1cc2c(OC)cc(OC)cc2oc1=O
inactive: NCI-H522 52.1 µM | NCI-H226 > 100 µM | ACHN > 100 µM | HT-29 > 100 µM | OVCAR-3 > 100 µM | 786-0 52.5 µM | MDA-N > 100 µM | U-251 37.7 µM | SK-MEL-28 > 100 µM | MDA-MB-231 35.9 µM | Hs-578T 45.2 µM | EKVX > 100 µM | LOX IMVI 5.58 µM | RPMI-8226 > 100 µM | M14 > 100 µM | DU-145 > 100 µM | OVCAR-4 > 100 µM
